# From ChEMBL document CHEMBL1146525, “New triterpenoid alkaloid cholinesterase inhibitors from Buxus hyrcana” (J Nat Prod, 2003)
# Columns and labels:
# Cholinesterase = Cholinesterase (Homo sapiens, UniProt P06276); test: Inhibition of BChE
# Acetylcholinesterase = Acetylcholinesterase (Electrophorus electricus, UniProt O42275); test: Inhibition of electric eel AChE by modified Ellman method
# [1] = Selectivity ratio of IC50 for electric eel AChE to IC50 for BChE
# Cholinesterase, sequence (P06276 whole entry): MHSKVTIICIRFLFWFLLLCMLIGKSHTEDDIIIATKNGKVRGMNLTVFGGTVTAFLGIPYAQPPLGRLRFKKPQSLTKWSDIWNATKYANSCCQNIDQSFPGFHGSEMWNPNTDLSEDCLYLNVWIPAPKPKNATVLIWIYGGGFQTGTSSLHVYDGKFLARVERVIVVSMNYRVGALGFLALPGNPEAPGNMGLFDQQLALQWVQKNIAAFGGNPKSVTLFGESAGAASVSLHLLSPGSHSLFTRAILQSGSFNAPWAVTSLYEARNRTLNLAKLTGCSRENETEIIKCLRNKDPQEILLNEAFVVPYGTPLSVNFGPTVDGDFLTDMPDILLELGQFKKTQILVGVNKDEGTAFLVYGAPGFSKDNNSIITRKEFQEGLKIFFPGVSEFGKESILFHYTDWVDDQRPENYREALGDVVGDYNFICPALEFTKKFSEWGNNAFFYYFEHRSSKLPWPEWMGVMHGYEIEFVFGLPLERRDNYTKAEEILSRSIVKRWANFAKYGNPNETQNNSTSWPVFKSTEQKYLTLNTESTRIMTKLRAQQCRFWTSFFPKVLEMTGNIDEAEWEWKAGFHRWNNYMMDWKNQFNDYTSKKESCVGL
# Acetylcholinesterase, sequence (O42275 whole entry): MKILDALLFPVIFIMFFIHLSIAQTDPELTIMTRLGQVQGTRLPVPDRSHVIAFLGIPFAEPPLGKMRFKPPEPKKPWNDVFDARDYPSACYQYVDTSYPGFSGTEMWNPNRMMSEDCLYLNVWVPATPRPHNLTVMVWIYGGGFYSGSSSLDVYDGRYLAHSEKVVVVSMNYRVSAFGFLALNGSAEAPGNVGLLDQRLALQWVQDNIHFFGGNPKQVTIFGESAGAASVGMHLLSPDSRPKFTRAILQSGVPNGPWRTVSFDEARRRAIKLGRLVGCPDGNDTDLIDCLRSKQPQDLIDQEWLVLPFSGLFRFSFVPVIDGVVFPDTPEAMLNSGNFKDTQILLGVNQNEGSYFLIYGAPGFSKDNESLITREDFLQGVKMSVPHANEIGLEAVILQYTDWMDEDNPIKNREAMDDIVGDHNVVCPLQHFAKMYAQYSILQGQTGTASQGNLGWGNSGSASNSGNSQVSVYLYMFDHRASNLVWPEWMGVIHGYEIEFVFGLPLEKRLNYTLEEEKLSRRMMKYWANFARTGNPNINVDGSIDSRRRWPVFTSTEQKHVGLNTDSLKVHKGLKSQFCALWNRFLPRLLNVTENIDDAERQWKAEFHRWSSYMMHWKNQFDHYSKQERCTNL
structure (smiles),measurement,setting,value
C[C@@H]([C@H]1CC[C@@]2(C)[C@@H]3CC[C@H]4C(C)(C)[C@@H](NC(=O)c5ccccc5)CC[C@]4(O)CC3=CC[C@]12C)N(C)C [N-BENZOYLBUXAHYRCANINE],IC50,Cholinesterase,311 µM
same,IC50,Acetylcholinesterase,> 1000 µM
same,Ratio IC50,[1],3.2
CC(C)C(=O)N[C@H]1CC[C@]2(O)CC3=CC[C@]4(C)[C@@H]([C@H](C)N(C)C)CC[C@@]4(C)[C@@H]3CC[C@H]2C1(C)C [N-ISOBUTYROYLBUXAHYRCANINE],IC50,Cholinesterase,53.7 µM
same,IC50,Acetylcholinesterase,> 1000 µM
same,Ratio IC50,[1],18.6
C/C=C(\C)C(=O)N[C@H]1CC[C@]2(O)CC3=CC[C@]4(C)[C@@H]([C@H](C)N(C)C)CC[C@@]4(C)[C@@H]3CC[C@H]2C1(C)C [N-TIGLOYLBUXAHYRCANINE],IC50,Cholinesterase,31.2 µM
same,IC50,Acetylcholinesterase,444 µM
same,Ratio IC50,[1],14.2
